# Laboratory results: paper doi:10.1101/2024.01.03.573903v1 (biorxiv, 2024)
# Molecular target: T1, ZIKV NS3 helicase (Zika virus, UniProt Q32ZE1)
# T1 sequence (Q32ZE1 1673-2115 limits assumed): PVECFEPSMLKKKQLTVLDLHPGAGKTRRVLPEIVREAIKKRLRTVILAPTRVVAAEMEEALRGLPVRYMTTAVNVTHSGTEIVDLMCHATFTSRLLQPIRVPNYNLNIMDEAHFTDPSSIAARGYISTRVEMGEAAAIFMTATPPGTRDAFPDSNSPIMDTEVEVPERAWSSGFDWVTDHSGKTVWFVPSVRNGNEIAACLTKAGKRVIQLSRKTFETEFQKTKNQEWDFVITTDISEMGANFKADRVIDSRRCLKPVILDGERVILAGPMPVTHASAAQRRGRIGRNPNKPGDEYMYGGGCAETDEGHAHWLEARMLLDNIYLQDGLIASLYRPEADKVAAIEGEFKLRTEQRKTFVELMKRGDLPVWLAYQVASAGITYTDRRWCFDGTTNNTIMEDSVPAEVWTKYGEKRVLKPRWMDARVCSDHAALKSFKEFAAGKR
# Assay: malachite green phosphate release NTPase assay
# Assay type: biochemical
smiles,measurement,value
COc1cc(/C=C/C(=O)CC(=O)/C=C/c2ccc(O)c(OC)c2)ccc1O [curcumin],IC50,64.4 µM
